Earlier results in patent US20100028395A1, “COMPOSITIONS CONTAINING N-ACETYLGLUCOSAMINE FOR USE IN DERMO-COSMETOLOGY AND AESTHETIC MEDICINE” (ROTTAPHARM S.P.A., priority 2007, published 2010).

Tested on: MatTek Human Skin EpiDemFT skin model
Conditions: addition of NAG to in vitro skin model; cited from earlier work

## CC(=O)N[C@@H](C=O)[C@@H](O)[C@H](O)[C@H](O)CO [NAG, N-acetyl-2-amino-2 deoxyglucose]
  increase of HA: very high, significant and dose dependent increase
  increase of pro-collagen 1: very high, significant and dose dependent increase
